US6265551A, “Form of dipeptidylpeptidase IV (CD26) found in human serum, antibodies thereto, and uses thereof” (Dana-Farber Cancer Institute, Inc., priority 1996, dated 2001)
Where a SMILES comes first, the peptide text is derived from it. The star is where a group is joined. pNA = O=[N+]([O-])c1ccc(N*)cc1

What was measured:
[1] = biological target: serum DPPIV (soluble 175 kDa form of DPPIV/CD26, DPPT-L) purified from normal human serum; test: DPPIV enzyme activity: Gly-Pro-pNA hydrolysis, Michaelis-Menten kinetics and inhibition; type: biochemical
Protocol: The DPPIV enzyme activities of the rsCD26 and serum DPPIV were analyzed by Michaelis-Menten kinetics by assessing kinetics of hydrolysis of substrate at different concentrations. […] To further exclude the possibility that we had purified irrelevant aminopeptidases which, working in concert or by sequential hydrolysis, could release the pNA chromophore from substrate, we tested a number of substrates which could be hydrolyzed by non-DPPIV aminopeptidases. One candidate for sequential hydrolysis is aminopeptidase M (3.4.11.2), but no hydrolysis of Ala-pNA, Arg-pNA or Leu-pNA was observed and activity by aminopolypeptidase (3.4.11.14) may be similarly excluded. The substrate succinyl-Gly-Pro-pNA was also not hydrolyzed. The only substrate apart from the dipeptide chromatogen Gly-Pro-pNA which could be hydrolyzed was Val-Ala-pNA, which was cleaved by both the serum DPPIV and rsCD26 (relative to rate of hydrolysis of Gly-Pro-pNA, hydrolysis of Val-Ala-pNA was 0.098 and 0.079, for rsCD26 and serum DPPIV, respectively). Although DPPIV primarily hydrolyses dipeptides with a proline in the penultimate position, it is well documented that alanine in the penultimate position may also render a dipeptide sequence susceptible to cleavage by DPPIV (8). […]
DPPIV activity: The primary substrate used for determining DPPIV activity in all assays was Gly-Pro-p-nitroanilide (Gly-Pro-pNA; Sigma), which is hydrolyzed by DPPIV to release pNA absorbing strongly at 405 nm. […] Inhibition of the hydrolysis of Gly-Pro-pNA was determined in the presence of the specific DPPIV inhibitor Diprotin A (Bachem, King of Prussia, Pa.). […] The pH optimum was determined substituting phosphate buffer (100 mM, pH4.5-pH9) in place of standard incubation buffer.
Serum DPPIV: Serum DPPIV was prepared by isolating from 100 ml of pooled normal human male AB serum the fraction of protein precipitated by 50-70% saturated ammonium sulfate. […] The DPPIV activity was eluted by a 0-0.5M NaCl gradient in equilibration buffer and all DPPIV activity was found in the 10 mM-50 mM NaCl eluate (determined by conductance). […]

[2] = biological target: recombinant soluble CD26 (rsCD26), full extracellular domain of human T cell membrane CD26/DPPIV, 105 kDa form, from transfected CHO cells (Homo sapiens, UniProt P27487); test: as above; conditions: U = enzyme cleaving 1 mmol Gly-Pro-pNA/min at pH7.6 and 20° C.
Chain of recombinant soluble CD26 (rsCD26), full extracellular domain of human T cell membrane CD26/DPPIV, 105 kDa form, from transfected CHO cells (P27487 29-766 limits assumed): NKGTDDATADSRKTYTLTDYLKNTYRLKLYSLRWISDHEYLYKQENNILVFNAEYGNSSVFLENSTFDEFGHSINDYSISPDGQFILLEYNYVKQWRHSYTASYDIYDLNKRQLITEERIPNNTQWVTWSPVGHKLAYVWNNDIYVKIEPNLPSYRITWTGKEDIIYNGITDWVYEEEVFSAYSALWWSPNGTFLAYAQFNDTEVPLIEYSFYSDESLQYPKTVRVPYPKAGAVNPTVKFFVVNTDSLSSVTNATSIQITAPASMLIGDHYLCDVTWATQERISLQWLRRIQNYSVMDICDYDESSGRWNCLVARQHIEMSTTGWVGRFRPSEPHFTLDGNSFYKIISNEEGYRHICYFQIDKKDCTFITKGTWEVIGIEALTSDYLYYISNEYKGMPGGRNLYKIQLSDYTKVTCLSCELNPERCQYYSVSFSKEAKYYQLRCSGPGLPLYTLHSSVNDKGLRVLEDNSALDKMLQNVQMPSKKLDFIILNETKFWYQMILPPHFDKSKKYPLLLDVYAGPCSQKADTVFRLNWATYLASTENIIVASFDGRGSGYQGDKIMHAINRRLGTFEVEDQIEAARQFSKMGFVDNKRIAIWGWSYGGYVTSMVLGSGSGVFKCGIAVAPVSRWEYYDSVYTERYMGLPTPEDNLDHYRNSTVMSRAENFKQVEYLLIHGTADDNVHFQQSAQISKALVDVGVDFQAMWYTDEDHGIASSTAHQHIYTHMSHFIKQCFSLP
Protocol: DPPIV activity: The primary substrate used for determining DPPIV activity in all assays was Gly-Pro-p-nitroanilide (Gly-Pro-pNA; Sigma), which is hydrolyzed by DPPIV to release pNA absorbing strongly at 405 nm. Kinetic assays were performed using varying amounts of substrate in order to obtain estimates of the Km and Vmax using standard Michaelis-Menten kinetics. For screening assays of DPPIV activity, 150 ml of substrate was used at 1 mg/ml (2 mM final concentration) in phosphate buffer (pH7.6, 100 mM) in 96 well flat-bottomed microtiter plates together with 10 ml of appropriately diluted sample. For samples obtained after elution from the s-Sepharose column, the pH was raised to pH7.6 by addition of 25 μl of 1M Tris-HCl, pH7.6 to the reaction mixture. One unit (U) of enzyme activity was defined as the amount of enzyme that cleaved 1 mmol of Gly-Pro-pNA/min at pH7.6 and 20° C. […] The pH optimum was determined substituting phosphate buffer (100 mM, pH4.5-pH9) in place of standard incubation buffer.

Row | Km ([1]; Lineweaver-Burke transformation, substrate at different concentrations) [µM] | Vmax, Gly-Pro-pNA as substrate ([1]; U = enzyme cleaving 1 mmol Gly-Pro-pNA/min at pH7.6 and 20° C.) [U/nmol serum DPPIV] | Vmax, Gly-Pro-pNA as substrate [2] [U/nmol rsCD26] | SMILES | IC50 ([1]; read-out: IC50 (Diprotin A), inhibition of the hydrolysis of Gly-Pro-pNA) [µM]
1 | – | – | – | CC[C@H](C)[C@H](N)C(=O)N1CCC[C@H]1C(=O)N[C@H](C(=O)O)[C@@H](C)CC [Diprotin A] | 250
2 | 280 | 0.65 | 1.52 | NCC(=O)N1CCC[C@H]1C(=O)Nc1ccc([N+](=O)[O-])cc1 [Gly-Pro-pNA, Gly-Pro-p-nitroanilide] (H-Gly-Pro-pNA) | –
